# Results taken from patent US10292992B2, “Selective high-affinity polydentate ligands and methods of making such” (LAWRENCE LIVERMORE NATIONAL SECURITY, LLC, priority 2008, dated 2019).
# Read-outs that look alike come from different tables or passages of the source.
# How the values were obtained:
# [1] = test system: Jurkat's cells (cells lacking HLA-DR10); test: 3-D confocal microscopy, Jurkat's cells; type: cell-based, human; settings: biotinylated reagent, 1 hr
# Method: SHAL binding and internalization by Raji and Jurkat's cells was assessed using the method described previously by O'Donnell et al. (O'Donnell et al. (1998) Prostate 37:91-97). Experiments were conducted comparing the binding of (DvLPBaPPP)2LLDo (the parent SHAL), its hexa-arginine analog (DvLPBaPPP)2LArg6AcLLDo, and chimeric Lym-1 (chLym-1) to Raji cells. All steps were performed at 20° C., unless indicated.
# Four million Raji cells (>92% viability) in log phase growth were pelleted at 300×g, washed, and blocked for 30 min in 1 ml of 1% fraction V BSA in PBS, with constant rotation. Cells were then incubated 1 hr, at 1 million per 250 μl, with either 1% BSA in PBS or a biotinylated primary reagent: 10 nM chLym-1, 10 μM parent SHAL, or 10 μM hexa-arginine SHAL. After four washes (two in 1% BSA in PBS, two in PBS), 50 μl of the cell suspensions was applied to freshly poly-L-Lysine coated slides, and cells were allowed to adhere for 10 min in a humid chamber. Fixation and permeabilization were performed at −20° C. by using a 4 min exposure to methanol. Jurkat's cells were treated in the same manner as a control.
# Slides were then washed twice in PBS and blocked in 10% fetaplex serum (Gemini Bioproducts, West Sacramento, Calif.) in PBS for 15 min and washed once in PBS. […]
# [2] = Stability in human plasma by cellulose acetate electrophoresis; type: in vitro ADME; settings: human plasma at 37° C. for 24 hrs; one preliminary CAE experiment
# From the text: Two forms of the free amine SHAL, (DvLPBaPPP)2LLA, and the hexa-arginine analog, (DvLPBaPPP)2LArg6AcLLA, were synthesized in multi-milligram amounts and purified by high performance liquid chromatography (HPLC). A biotin was attached to the ε-amino group of the terminal amine (A) on both (DvLPBaPPP)2LLA and (DvLPBaPPP)2LArg6AcLLA to produce biotinylated forms for use in cell and protein binding experiments. 1,4,7,10-tetraazacyclododecane-1,4,7,10-tetraacetic acid (DOTA) was attached to both (DvLPBaPPP)2LLA and (DvLPBaPPP)2LArg6AcLLA at the same site to enable the SHALs to be labeled with ^111In. The DOTA SHAL (DvLPBaPPP)2LLDo (FIG. 25A) and the hexa-arginine SHAL analog (DvLPBaPPP)2LArg6AcLLDo (FIG. 25B) were labeled with ^111In at high efficiency (>90%) with specific activities ranging from 70-85 μCi/μg SHAL. […] D-isomers of arginine incorporated during the synthesis of the hexa-arginine sequence in (DvLPBaPPP)2LArg6AcLLDo were used to minimize the proteolytic susceptibility of the peptide.
# [3] = test system: Raji human HLA-DR10 expressing lymphoma cells; test: Cytotoxicity assay (trypan blue) in Raji cell culture; type: cell-based
# Method: Raji cells harvested in log growth phase were centrifuged, resuspended in fresh media and counted in 10% trypan-blue dye to determine initial and subsequent viability, as previously described (West et al. (2006) Cancer Biother. Radiopharm., 21: 645-654). When untreated, cells continued to multiply and nonviable cells, initially <5% of total cells, remained so over the course of the assays. To titrate cytotoxic activity, biotinylated tridentate SHAL at concentrations ranging between 0 and 7 nM (pm/ml media) was incubated with 0.5×10^6 cells/ml at 37° C. in a 5% CO2, humidified atmosphere (NAPCO, Portland, Oreg.). After 1, 2 and 3 days, cells were resuspended in trypan blue dye and counted in a hemocytometer. The fractional viability and absolute number of viable and non-viable cells/ml were determined.
# Jurkat's xenografts = test: Efficacy in mice with Jurkat's xenografts; type: in vivo, athymic Balb/c nu/nu mice
# From the text: Seven- to nine-week old female, athymic Balb/c nu/nu mice (Harlan Sprague Dawley, Inc., Frederick, Md.) were maintained according to University of California animal care guidelines under pathogen-free conditions and on a normal ad libitum diet. Raji or Jurkat's cells harvested in log phase and having >95% viability were implanted (6×10^6 cells) subcutaneously in the lower abdomen 3-4 days after the mice were irradiated (400 cGy) to suppress xenograft rejection. When xenografts reached 20-500 mm3 by caliper measurement, the mice were sorted by xenograft volume into 4 groups: SHAL-treated mice with Raji xenografts, SHAL-treated mice with Jurkat's xenografts, untreated mice with Raji xenografts or untreated mice with Jurkat's xenografts. Each mouse was injected with 100 μl of PBS or 100 ng DOTA-chelated tridentate SHAL i.p. on days 0, 7 and 14. Xenograft volume and survival were monitored for ≥84 days. The mice were also weighed 2-3 times each week for 4 weeks then weekly. Blood counts were measured prior to each SHAL or PBS dose and weekly for 4 weeks after the final dose using a Z Series Coulter Counter (Beckman Coulter Inc., Hialeah, Fla.) and a phase contrast microscope (Zeiss, Jena, Germany).
# Xenograft volumes were calculated by the formula for hemiellipsoids (DeNardo et al. (1997) Clin. Cancer Res. 3: 71-79). […] If a xenograft became >2000 mm3, the mouse was euthanized in accordance with University of California animal care guidelines and scored as a disease-related death.
# Initial analysis compared response rates by exact tests and survival times by log-rank tests for untreated Raji and Jurkat's mice and found no significant differences, so these groups were pooled for subsequent analysis. Response rates for treated Raji, treated Jurkat's and untreated mice were compared by x^2 and exact tests. Survival times were censored at 84 days for mice who had not died or been euthanized because of tumor growth before that time. Times were summarized descriptively by Kaplan-Meier curves and median survival and 95% confidence limits were obtained by the product-limit estimate. The two treated groups were compared to the untreated using a log-rank test for homogeneity across groups, followed by a proportional hazards model to estimate the effect of treatment compared to no treatment. Analyses were carried out using SAS/SAT® software (SAS Institute, Inc. SAS/STAT Version 9.0. 2004. Cary, N.C.: SAS Institute). All tests were two-sided at level 0.05.
# [4] = 100 ng DOTA-chelated tridentate SHAL i.p. days 0, 7 and 14
SMILES,SHAL uptake in Jurkat's cells [1],degradation in human plasma [2],threshold concentration for cytotoxic activity ([3]; Raji cell culture),"IC50 ([3]; Raji cell culture, read-out: IC50 concentration for cytotoxic activity)","threshold SHAL cytotoxic concentration ([3]; biotinylated tridentate SHAL, determined at 2 days)","IC50 ([3]; biotinylated tridentate SHAL, determined at 2 days, read-out: IC50 SHAL cytotoxic concentration)",Cure (Jurkat's xenografts; [4]),ORR (overall response rate) (Jurkat's xenografts; [4]),longest survival (FIG. 31) (Jurkat's xenografts; 100 ng SHAL i.p. once weekly for 3 consecutive weeks),"effect of SHAL treatment on Jurkat's xenografts (Jurkat's xenografts; mouse, in vivo)",median survival time (Jurkat's xenografts; treated mice with Jurkat's xenografts)
CC(=O)NC(CCCNC(=N)N)C(=O)NC(CCCNC(=N)N)C(=O)NC(CCCNC(=N)N)C(=O)NC(CCCNC(=N)N)C(=O)NC(CCCNC(=N)N)C(=O)NC(CCCNC(=N)N)C(=O)NCCCCC(NC(=O)C(CCCCNC(=O)COCCOCCNC(=O)COCCOCCNC(=O)COCCOCCNC(=O)C(CCCCNC(=O)COCCOCCNC(=O)c1ccc(NC(=O)C(CCCNC(=N)N)NC(=O)c2ccccc2)cc1)NC(=O)C(NS(=O)(=O)c1ccc(N=Nc2ccc(N(C)C)cc2)cc1)C(C)C)NC(=O)COCCOCCNC(=O)COCCOCCNC(=O)COCCOCCNC(=O)C(CCCCNC(=O)COCCOCCNC(=O)c1ccc(NC(=O)C(CCCNC(=N)N)NC(=O)c2ccccc2)cc1)NC(=O)C(NS(=O)(=O)c1ccc(N=Nc2ccc(N(C)C)cc2)cc1)C(C)C)C(=O)NC(CCCCNC(=O)CN1CCN(CC(=O)O)CCN(CC(=O)O)CCN(CC(=O)O)CC1)C(=O)O (centres unmarked) [(DvLPBaPPP)2LArg6AcLLDo],minimal SHAL uptake,no evidence of degradation,–,–,–,–,–,–,–,–,–
CC(C)C(NS(=O)(=O)c1ccc(N=Nc2ccc(N(C)C)cc2)cc1)C(=O)NCCOCCOCC(=O)NC(CCCCNC(=O)C(CCCCNC(=O)CC(=O)Nc1ccccc1Oc1ncc(C(F)(F)F)cc1Cl)NC(=O)COCCOCCNC(=O)c1ccc(N2CCN(Cc3ccc(Cl)cc3)CC2)c([N+](=O)[O-])c1)C(=O)NCCOCCOCC(=O)NC(CCCCNC(=O)CN1CCN(CC(=O)O)CCN(CC(=O)O)CCN(CC(=O)O)CC1)C(=O)O (centres unmarked) [tridentate SHAL],–,–,0.7 nM,2.5 nM,0.7 nM (pm/ml media),2.5 nM,0%,0%,≤ 56 days,not affected,21 days
